These results are taken from ChEMBL document CHEMBL1130458, “Inhibition of carboxypeptidase a by N-(4-t-Butylbenzoyl)-2-hydroxy-1-naphthaldehyde hydrazone” (Bioorg Med Chem Lett, 1997).

The target in test [1] is T1, Carboxypeptidase A1 (Bos taurus) (UniProt P00730).
T1 sequence (whole entry): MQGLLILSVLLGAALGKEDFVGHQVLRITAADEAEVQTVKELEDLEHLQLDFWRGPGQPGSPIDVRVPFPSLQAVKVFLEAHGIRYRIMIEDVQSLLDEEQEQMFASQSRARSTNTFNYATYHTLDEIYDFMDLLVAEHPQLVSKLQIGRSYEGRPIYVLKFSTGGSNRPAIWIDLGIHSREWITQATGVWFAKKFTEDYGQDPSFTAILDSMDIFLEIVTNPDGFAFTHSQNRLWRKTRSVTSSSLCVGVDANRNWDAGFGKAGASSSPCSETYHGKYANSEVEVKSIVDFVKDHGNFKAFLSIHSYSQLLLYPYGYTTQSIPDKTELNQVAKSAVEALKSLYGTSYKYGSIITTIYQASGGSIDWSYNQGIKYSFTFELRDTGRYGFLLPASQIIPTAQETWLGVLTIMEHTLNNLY
As to the kind of experiment: Percentage inhibition of carboxypeptidase A (CPA, bovine, Type I) enzyme by the compound required to inhibit at 63 uM was evaluated.

Test [2] concerns the target T2, Angiotensin-converting enzyme (Oryctolagus cuniculus) (UniProt P12822).
T2 sequence (whole entry): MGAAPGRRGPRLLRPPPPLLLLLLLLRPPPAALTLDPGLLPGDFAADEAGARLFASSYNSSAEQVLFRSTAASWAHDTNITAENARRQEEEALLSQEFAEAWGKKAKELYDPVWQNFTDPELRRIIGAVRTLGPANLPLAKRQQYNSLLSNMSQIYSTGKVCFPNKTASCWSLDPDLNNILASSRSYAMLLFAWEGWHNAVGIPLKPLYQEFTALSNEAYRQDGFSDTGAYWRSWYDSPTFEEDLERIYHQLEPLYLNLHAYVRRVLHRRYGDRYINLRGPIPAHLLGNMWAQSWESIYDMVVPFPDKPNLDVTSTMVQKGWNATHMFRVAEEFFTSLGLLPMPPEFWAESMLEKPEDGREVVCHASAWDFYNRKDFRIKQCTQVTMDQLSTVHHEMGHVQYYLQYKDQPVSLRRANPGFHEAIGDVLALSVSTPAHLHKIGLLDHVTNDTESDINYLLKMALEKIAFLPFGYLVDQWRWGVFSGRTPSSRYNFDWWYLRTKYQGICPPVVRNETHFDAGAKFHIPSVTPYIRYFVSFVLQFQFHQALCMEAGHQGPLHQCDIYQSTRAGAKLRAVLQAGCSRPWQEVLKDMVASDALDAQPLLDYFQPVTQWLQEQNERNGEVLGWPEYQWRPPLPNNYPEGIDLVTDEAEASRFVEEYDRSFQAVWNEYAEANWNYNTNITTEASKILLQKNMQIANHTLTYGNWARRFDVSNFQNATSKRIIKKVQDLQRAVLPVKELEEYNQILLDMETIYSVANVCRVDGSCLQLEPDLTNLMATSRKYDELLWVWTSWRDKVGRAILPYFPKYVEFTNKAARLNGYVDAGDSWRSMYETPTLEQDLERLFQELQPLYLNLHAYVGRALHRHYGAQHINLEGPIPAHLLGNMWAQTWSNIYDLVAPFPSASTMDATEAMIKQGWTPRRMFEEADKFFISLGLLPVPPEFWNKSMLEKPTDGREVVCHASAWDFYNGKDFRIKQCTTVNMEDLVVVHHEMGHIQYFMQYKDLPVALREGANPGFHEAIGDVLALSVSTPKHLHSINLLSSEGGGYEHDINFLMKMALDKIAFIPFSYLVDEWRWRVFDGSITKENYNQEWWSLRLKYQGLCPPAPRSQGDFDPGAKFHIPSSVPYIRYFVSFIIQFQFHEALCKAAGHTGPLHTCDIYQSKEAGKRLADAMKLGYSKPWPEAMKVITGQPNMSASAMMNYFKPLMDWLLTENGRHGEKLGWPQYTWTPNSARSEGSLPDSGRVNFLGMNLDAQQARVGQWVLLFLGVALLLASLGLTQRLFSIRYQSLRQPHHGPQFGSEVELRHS
As to the kind of experiment: Percentage inhibition of angiotensin converting enzyme (rabbit lung) by the compound required to inhibit at 63 uM was evaluated.

In test [3] the target is T3, Carboxypeptidase A1 (Bos taurus, UniProt P00730).
T3 sequence (P00730 whole entry): T1 sequence (whole entry)
Description: Inhibitory concentration required to inhibit carboxypeptidase A (CPA, bovine, Type I) was evaluated.

Turning to `CC(C)(C)c1ccc(C(=O)N/N=C/c2ccccc2O)cc1`, the results for the inhibition in test [1] and in test [2] were 33% and 3%, respectively.
Take `CC(C)(C)c1ccc(C(=O)N/N=C/c2cccc3ccccc23)cc1`: the inhibition in test [1] was 17%; in test [2], 2%.
On to `CC(C)(C)c1ccc(C(=O)N/N=C/c2c(O)ccc3ccccc23)cc1`, for which the inhibition in test [2] turned out to be 5%. For the same compound, in test [3], inhibition was half-maximal at 29 µM (IC50).

Usually inhibition stands for how much of the control response was suppressed. A lower inhibition goes with little suppression. Usually IC50 stands for the concentration at which inhibition is half-maximal. The low end stands for greater potency, the high end for weaker potency.
